According to US20040121965A1, “Method of treating resistant tumors” (Wyeth Holdings Corporation, priority 2002, published 2004):

Assays:
[1] = test system: KB-3-1; experiment: Cell survival assay (SRB), KB-3-1; type: cell-based, human; settings: Homo sapiens, KB 3-1, KB-3-1 cells (paclitaxel-sensitive parent); read-out: In vitro IC50 (nM) KB-3-1
Source text: Cells lines with previously known mechanisms of resistance. […] Res. 8: 207-218,1996); KB-3-1 (parental derived from an epidermoid carcinoma), KB-8.5, KB-V1 (Akiyama S-I, Fojo A, Hanover J A, Pastan I, Gottesman M M. Isolation and genetic characterization of human KB cell lines resistant to multiple drugs. Somatic Cell Mol. Gen., 11: 117-126,1985; Shen D-W, Cardarelli C, Hwang J, Cornwell M, Richert N, Ishii S, Pastan I, Gottesman MM. […] J. Biol. Chem., 261: 7762-7770, 1986); and HL-60 (parental derived from human leukemia) and HL60/AR (McGrath T., Center M. S. Adriamycin resistance in HL60 cells in the absence of detectable P-glycoprotein. Biochem. Res. Commun., 145:1171-1176,1987); A549 and A549.EpoB40 (He L., Yang C.-P.H., Horwitz S. B. Mutations in p-tubulin map to domains involved in regulation of microtubule stability in epothilone-resistant cell lines. Molecular Cancer Therapeutics. 1: 3-10, 2001). HCT-15 human colon carcinoma and DLD-1 human colon carcinoma are obtained from American Tissue Culture Collection. The MX-1W carcinoma is a Wyeth variant orginally obtained as MX-1 breast carcinoma from the National Cancer Institute. Cell lines selected for resistance to Representative Example 129. KB-3-1 cells are selected for resistance to Example 129 by chronically exposing cells to increasing concentrations of Example 129.
2.2. Cell Survival Assay: Standard Pharmacological Test Procedure. The concentration of candidate inhibitor required to inhibit 50% of cell growth (IC50) is done according to previously reported methods. […] Compounds are serially diluted into media as 2× stocks and 100 μl added to cells in duplicate. Compounds are incubated with cells for 3 days. At the end of the incubation period the sulforhodamine B (SRB) assay, which measures protein content as an assessment of cell survival, is performed as described previously (Skehan P, Storeng R, Scudiero D, Monks A, McMahon J, Vistica D, Warren J T, Bokesch H, Kenney S, Boyd MR. New calorimetric cytotoxicity assay for anticancer-drug screening. J Natl Cancer Inst 1990 Jul 4;82(13):1107-12) with some modification as follows. For KB-3-1 cells with 20% FCS, media is gently decanted and replaced with 200 μl of serum-free media mixed with cold 50% TCA for a final concentration of 10% TCA. The plates are incubated for 1 hr at 4° C., followed by washing 5 times in cold distilled water, then air dried overnight. The fixed cells are stained for 10 min with 80 μl of 0.04% SRB solution prepared in 1% glacial acetic acid. Stain is discarded and plates washed 5 times in 1% glacial acetic acid, then air-dried until completely dry. Stained cell product is dissolved in 150 μl of 10 mM Trizma Base and placed on a shaker for 20 minutes until fully dissolved. Absorbance is read on a Victor V multi-label plate reader (Perkin Elmer, Gaithersburg, Md.).

[2] = test system: KB-8-5 (MDR1+); experiment: Cell survival assay (SRB), KB-8-5 (MDR1+); settings: for IC50: Homo sapiens, MDR1, read-out: In vitro IC50 (nM) KB85
[3] = test system: KB-V1 (MDR1++); experiment: Cell survival assay (SRB), KB-V1 (MDR1++); settings: for IC50: Homo sapiens, read-out: In vitro IC50 (nM) KBV1

Row | Structure (SMILES) | IC50 [1] [nM] | Ratio KB85/KB [2] | IC50 [2] [nM] | Ratio KBV1/KB [3] | IC50 [3] [nM]
1 | CCOC(=O)/C(C)=C/[C@H](C(C)C)N(C)C(=O)[C@@H](NC(=O)[C@@H](NC)C(C)(C)c1ccc(C)c(C)c1)C(C)(C)C [Example 13a, N,β, β,3,4-Pentamethyl-L-phenylalanyl-N^1-[(1S,2E)4-ethoxy-1-isopropyl-3-methyl-4-oxo-2-butenyl]-N^1,3-dimethyl-L-valinamide] | 9.1 | 24.0 | 219 | 191.0 | 1740
2 | CN[C@@H](C(=O)N[C@H](C(=O)N(C)[C@H](/C=C(\C)C(=O)O)C(C)C)C(C)(C)C)C(C)(C)c1ccc(C)c(C)c1 [Example 15, N,β,β,3,4-Pentamethyl-D-phenylalanyl-N^1-[(1S,2E)-3-carboxy-1-isopropyl-2-butenyl]-N^1,3-dimethyl-L-valinamide] | 13.8 | 1.6 | 21.4 | 87.1 | 1200
3 | CCOC(=O)/C(C)=C/[C@H](C(C)C)N(C)C(=O)[C@@H](NC(=O)[C@@H](NC)C(C)(C)c1cc(C)cc(C)c1)C(C)(C)C [Example 16a, N,β,β,3,5-Pentamethyl-L-phenylalanyl-N^1-[(1S,2E)-4-ethoxy-1-isopropyl-3-methyl-4-oxo-2-butenyl]-N^1,3-dimethyl-L-valinamide] | 15.1 | 20.0 | 302 | 120.5 | 1820
4 | CCOC(=O)/C(C)=C/[C@H](C(C)C)N(C)C(=O)[C@@H](NC(=O)[C@H](NC)C(C)(C)c1cc(C)cc(C)c1)C(C)(C)C [Example 16b, N,β,β,3,5-pentamethyl-D-phenylalanyl-N^1-[(1S,2E)-4-ethoxy-1-isopropyl-3-methyl-4-oxo-2-butenyl]-N^1,3-dimethyl-L-valinamide] | 257 | 5.9 | 1510 | 11.7 | ≥ 3000
5 | CN[C@H](C(=O)N[C@H](C(=O)N(C)[C@H](/C=C(\C)C(=O)O)C(C)C)C(C)(C)C)C(C)(C)c1cc(C)cc(C)c1 [Example 17, N,β,β,3,5-Pentamethyl-L-phenylalanyl-N^1-[(1S,2E)-3-carboxy-1-isopropyl-2-butenyl]-N^1,3-dimethyl-L-valinamide] | 1 | – | 1 | 75.7 | 44
6 | CN[C@@H](C(=O)N[C@H](C(=O)N(C)[C@H](/C=C(\C)C(=O)O)C(C)C)C(C)(C)C)C(C)(C)c1cc(C)cc(C)c1 [Example 18, N,β,β,3,5-Pentamethyl-D-phenylalanyl-N^1-[(1S,2E)-3-carboxy-1-isopropyl-2-butenyl]-N^1,3-dimethyl-L-valinamide] | 7.2 | 2.4 | 17.4 | 79.9 | 575
7 | CN[C@@H](C(=O)N[C@H](C(=O)N(C)[C@H](/C=C(\C)C(=O)O)C(C)C)C(C)(C)C)C(C)(C)c1cccs1 [Example 21, N-Methyl-3-(2-thienyl)-D-valyl-N^1-[(1S,2E)-3-carboxy-1-isopropyl-2-butenyl]-N^1,3-dimethyl-L-valinamide] | 10.2 | 1.8 | 18.2 | 74.4 | 758
8 | CN[C@H](C(=O)N[C@H](C(=O)N(C)[C@H](/C=C(\C)C(=O)O)C(C)C)C(C)(C)C)C(C)(C)c1ccsc1 [Example 23, N-Methyl-3-thien-3-yl-L-valyl-N^1-[(1S,2E)-3-carboxy-1-isopropylbut-2-enyl]-N^1,3-dimethyl-L-valinamide] | 2.1 | 3.1 | 6.6 | 345.0 | 724
9 | CN[C@@H](C(=O)N[C@H](C(=O)N(C)[C@H](/C=C(\C)C(=O)O)C(C)C)C(C)(C)C)C(C)(C)c1ccsc1 [Example 24, N-Methyl-3-thien-3-yl-D-valyl-N^1-[(1S,2E)-3-carboxy-1-isopropylbut-2-enyl]-N^1,3-dimethyl-L-valinamide] | 9.5 | 2.4 | 22.4 | 182.9 | 1740
10 | CCOC(=O)/C(C)=C/[C@H](C(C)C)N(C)C(=O)[C@@H](NC(=O)C(NC)C(C)(C)c1csc2ccccc12)C(C)(C)C (stereo partly drawn) [Example 25, 3-(1-Benzothien-3-yl)-N-methylvalyl-N^1-[(l S,2E)-4-ethoxy-1-isopropyl-3-methyl4-oxo-2-butenyl]-N^1,3-dimethyl-L-valinamide] | 479 | 3.2 | 1510 | 6.2 | 2950
11 | CN[C@H](C(=O)N[C@H](C(=O)N(C)[C@H](/C=C(\C)C(=O)O)C(C)C)C(C)(C)C)C(C)(C)c1csc2ccccc12 [Example 26, 3-(1-Benzothien-3-yl)-N-methylvalyl-N^1-[(1S,2E)-3-carboxy-1-isopropyl-2-butenyl]-N^1,3-dimethyl-L-valinamide] | 4.5 | 2.0 | 9.1 | 92.6 | 417
12 | CCOC(=O)/C(C)=C/[C@H](C(C)C)N(C)C(=O)[C@@H](NC(=O)[C@@H](NC)C(C)(C)c1cc2ccccc2s1)C(C)(C)C [Example 27, 3-(1-Benzothien-2-yl)-N-methylvalyl-N^1-[(1S,2E)4-ethoxy-1-isopropyl-3-methyl4-oxo-2-butenyl]-N^1,3-dimethyl-L-valinamide] | 331 | 4.8 | 1580 | 9.1 | ≥ 3000
13 | CN[C@H](C(=O)N[C@H](C(=O)N(C)[C@H](/C=C(\C)C(=O)O)C(C)C)C(C)(C)C)C(C)(C)c1cc2ccccc2s1 [Example 28, 3-(1-Benzothien-2-yl)-N-methylvalyl-N^1-[(1S,2E)-3-carboxy-1-isopropyl-2-butenyl]-N^1,3-dimethyl-L-valinamide] | 2.55 | 1.8 | 4.6 | 54.4 | 139
14 | CCOC(=O)/C(C)=C/[C@H](C(C)C)N(C)C(=O)[C@@H](NC(=O)[C@@H](NC)C(C)(C)c1ccc(C(C)(C)C)cc1)C(C)(C)C [Example 29, 4-tert-Butyl-N,β,β-trimethylphenylalanyl-N^1-[(1S,2E)-4-ethoxy-1-isopropyl-3-methyl-4-oxo-2-butenyl]-N^1,3-dimethyl-L-valinamide] | 35.4 | 10.7 | 380 | 84.7 | ≥ 3000
15 | CN[C@H](C(=O)N[C@H](C(=O)N(C)[C@H](/C=C(\C)C(=O)O)C(C)C)C(C)(C)C)C(C)(C)c1ccc(C(C)(C)C)cc1 [Example 30, 4-tert-Butyl-N,β,β-trimethylphenylalanyl-N^1-[(1S,2E)-3-carboxy-1-isopropyl-2-butenyl]-N^1,3-dimethyl-L-valinamide] | 3 | 1.7 | 5.1 | 35.9 | 108
16 | CCN[C@H](C(=O)N[C@H](C(=O)N(C)[C@H](/C=C(\C)C(=O)OCC)C(C)C)C(C)(C)C)C(C)(C)c1ccccc1 [Example 31, N-Ethyl-β,β-dimethylphenylalanyl-N^1-[(1S,2E)-4-ethoxy-1-isopropyl-3-methyl4-oxo-2-butenyl]-N^1,3-dimethyl-L-valinamide] | 436 | 4.3 | 1860 | 6.9 | ≥ 3000
17 | CN[C@H](C(=O)N[C@H](C(=O)N(C)[C@H](/C=C(\C)C(=O)O)C(C)C)C(C)(C)C)C(C)(C)c1ccccc1C [Example 35, N,β,β,2-Tetramethyl-L-phenylalanyl-N^1-[(1S,2E)-3-carboxy-1-isopropyl-2-butenyl]-N^1,3-dimethyl-L-valinamide] | 0.912 | 2.0 | 1.8 | 61.6 | 56.2
